In ChEMBL document CHEMBL1201862, “PubChem BioAssay data set” (2004):
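Each compound was tested at five concentrations against cells in 96-well plates for 48 hours. Abbreviation: GI50, concentration required for 50% inhibition of growth.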 Activity calls are given as the source filed them. No stated cut-off is given here; in the data, active = GI50 up to about 1.1 µM and inactive = higher.

Tests used:
Experiment in all cases: NCI tumour cell line growth inhibition, 48 h
[1] = test system: MDA-MB-435
[2] = test system: SF-268
[3] = test system: RXF 393
[4] = test system: RPMI-8226
[5] = test system: HOP-62
[6] = test system: UACC-62
[7] = test system: PC-3
[8] = test system: MDA-MB-231
[9] = test system: OVCAR-3
[10] = test system: HCT-116
[11] = test system: SF-539
[12] = test system: MCF7
[13] = test system: HOP-92
[14] = test system: NCI-H460
[15] = test system: OVCAR-4
[16] = test system: SK-MEL-28
[17] = test system: U-251
[18] = test system: IGROV-1
[19] = test system: ACHN
[20] = test system: CAKI-1

C=C1C(=O)O[C@H]2C[C@@]3(C)[C@H](O)CCC(=C)[C@@H]3[C@@H](OC(C)=O)[C@H]12 was tested, and the GI50 [1] was 15.5 µM (inactive), the GI50 [2] was 19.2 µM (inactive) and the GI50 [3] was 3.56 µM (inactive). For the same compound, the GI50 [4] was 5 µM (inactive), the GI50 [5] was 16.4 µM (inactive) and the GI50 [6] was 15.9 µM (inactive). The GI50 [7] was 16.5 µM (inactive), the GI50 [8] was 16.1 µM (inactive) and the GI50 [9] was 12.3 µM (inactive). For the same compound, the GI50 [10] was 3.66 µM (inactive), the GI50 [11] was 0.409 µM (active) and the GI50 [12] was 1.51 µM (inactive). For the same compound, the GI50 [13] was 2.71 µM (inactive), the GI50 [14] was 13.1 µM (inactive) and the GI50 [15] was 4.85 µM (inactive). The GI50 [16] was 20 µM (inactive), the GI50 [17] was 20.2 µM (inactive) and the GI50 [18] was 14.1 µM (inactive). The GI50 [19] was 3.53 µM (inactive) and the GI50 [20] was 1.48 µM (inactive).
